Test results reported in patent publication US20120164104A1, “Composition and Methods of Treating Viral Infections and Viral Induced Tumors” (Chimerix, Inc., priority 2009, published 2012).
Entries after “also recorded” stand apart in the source; their conditions may differ. Like-named read-outs stand apart in the source and are kept apart here.

Tests used:
EBV = experiment: CMX001 in human patients with EBV-associated PTLD; format: in vivo; conditions: for EBV viral load: heart transplant recipient
Description: The first patient is a patient with a history of sickle cell anemia developed EBV-associated intracranial post-transplant lymphoproliferative disorder (PTLD). EBV was positive in the plasma (7 Dec. and 14 Dec. 2010) and brain biopsies were consistent with PTLD. In early December, the patient presented with a 3 day history of persistent headache, nausea, vomiting, and diarrhea. […] The patient was admitted to PICU. High intracranial pressure, repetitive seizures associated with apnea led to intubation and emergency request for CMX001. The use of CMX001 in this patient with EBV-associated PTLD is ongoing since […].
The second patient was a heart transplant recipient with EBV-associated PTLD. The patient acquired a primary EBV infection post-operatively. […] The clinical condition continued to destabilize with what was presumed to be EBV-associated encephalitis with EBV detected in the CSF, clinical and EEG-correlated seizure activity and decreased responsiveness and changes in mental status. At the time of request for CMX001, the patient was on mechanical ventilation, had evidence of both pneumonia and PTLD of their lungs, evidence of seizure activity with clinical criteria for encephalopathy being present. The patient received their first dose of CMX001, 20 mg (approximately 3.3 mg/kg) on 3 Mar. 2010, and their second dose on 7 Mar. […] The patient continued to show evidence of progressive neurologic injury. The parents withdrew support on the day following their second dose of CMX001.

BKV(Dunlop) [1] = experiment: BKV early and late protein expression in infected RPTECs (immunofluorescence, western blot); format: cell-based; conditions: for LTag staining reduced / decrease of VP1 by western blotting: CMX001 0.31 μM
Method: For FIG. 1(b), indirect immunofluorescence of untreated and CMX001 treated BKV-infected RPTECs, methanol fixed 72 h pd. and stained with rabbit anti-agnoprotein serum (green) for visualization of the late agnoprotein and with the SV40 LTag monoclonal Pab416 for visualization og BKV LTag (red). Cell density is shown by Drac 5 staining in blue.
For FIG. 4(a), indirect immunofluorescence of untreated and CMX001 treated BKV-infected RPTECs, methanol fixed 48 and 72 h p.i. and stained with rabbit anti-agnoprotein serum (green) for visualization of the late agnoprotein and with the SV40 LTag monoclonal Pab416 for visualization of BKV LTag (red). For FIG. 4(b), cell extracts from CMX001-treated and untreated BKV-infected RPTECs were harvested 48 and 72 h p.i. and western blot performed with rabbit anti-BKV VP1, anti-agnoprotein serum and a monoclonal antibody directed against the housekeeping protein GAPDH.
(§1) Primary human renal proximal tubule epithelial cells (RPTECs), BKV(Dunlop) and all methods as previously described by Bernhoff et al (See Bernhoff et al., Cidofovir inhibits polyomavirus BK replication in human renal tubular cells downstream of viral early gene expression, Am J Transplant 8, 1413-1422 (2008).) Only one exception, quantitative PCR (qPCR) to quantify intracellular or extracellular BKV DNA load was performed with a different primer/probe set also targeting the LTag gene (See Hirsch, et al., J. Prospective study of polyomavirus type BK replication and nephropathy in renal-transplant recipients, N Engl J. Med., 347, 488-496 (2002)). Before each experiment, CMX001 was freshly dissolved to 1 mg/ml in methanol/water/ammonium hydroxide (50/50/2). It was further diluted in RPTEC growth medium.
To investigate expression of LTag at the single-cell level, immunofluorescence staining at 48 and 72 h p.i was performed. At 48 h p.i. the number of BKV positive cells was almost the same in CMX001 and untreated wells. At 72 h p.i., the CMX001 treated cells seemed to express less LTag pro cell (FIG. 4a).

BKV = experiment: Stability of CMX001 stock solution, tested by antiviral effect on extracellular BKV load; format: cell-based; conditions: diluted to 0.31 uM
Method: FIG. 7 illustrates the stability of CMX001. For FIG. 7, BKV-infected RPTECs were treated with freshly made CMX001 or CMX001 from a stock solution at 1 mg/ml stored for one week at 4° C. or −20° C. Supernatants were harvested 72 h p.i. and extracellular BKV load measured by qPCR. Data are presented as BKV load in percent of untreated cells set at 100%.
To examine the stability of CMX001 stock solution 1 mg/ml was put in 4 or −20° C. for one week then diluted to 0.31 uM and tested for its antiviral effect by measuring the extracellular BKV load in BKV-infected RPTEC 3 d p.i.

BKV(Dunlop) [2] = experiment: Extracellular BKV load in supernatants of BKV-infected RPTECs (qPCR); format: cell-based
Method: For FIG. 1(a), RPTEC supernatants were harvested 72 h p.i. i.e. 70 h post start of treatment with indicated CMX001 concentrations. BKV load was measured by […] and input virus subtracted. DNA load in untreated cells (1.05E+09 Geq/ml) was set as 100%.
FIG. 5 illustrates the influence of CMX001 0.31 μM on BKV extracellular BKV load. […] Supernatants from CMX001-treated and untreated BKV-infected RPTECs were harvested at indicated timepoints after infection and BKV load measured by qPCR. Data are presented as BKV load in Geq/ml.
For FIG. […] Supernatants were harvested 72 h p.i. and extracellular BKV load measured by qPCR. Data are presented in percent of untreated cells set at 100%.
as §1
To investigate the effect of CMX001 on BKV progeny, increasing concentrations of CMX001 were added 2 h p.i. and supernatants harvested at 72 h p.i. It was observed that CMX001 reduced the extracellular BKV load in a concentration dependent manner (See FIG. 1 a). […] With CMX001 0.31 uM an approximately 60% decrease in BKV agnoprotein expressing cells was seen. The number of cells expressing LTag was less reduced but the signal intensity was lower than in untreated cells. […] The conclusion is that CMX001 reduced the expression of early and late BKV proteins and the production of extracellular progeny but also seemed to affect the proliferation rate of RPTECs at higher concentrations.

Structure (SMILES): CCCCCCCCCCCCCCCCOCCCOP(=O)(O)CO[C@H](CO)Cn1ccc(N)nc1=O [CMX001]
- EBV viral load (EBV; 3 Mar. 2010 (day of first dose, 20 mg)): 267,338 copies/mL
- EBV viral load (EBV; 7 Mar. 2010 (day of second dose)): 47,427 copies/mL
- EBV in the plasma (EBV; patient on CMX001): remains negative
- tolerability (EBV; patient, 4 mg/kg twice weekly): tolerated CMX001 well
- clinical outcome (EBV; patient, intracranial PTLD, 4 mg/kg twice weekly): clinical improvement of their signs and symptoms of disease as well as stabilization if not reduction of their intracranial mass
- BKV-infected cells by immunofluorescence staining (BKV(Dunlop) [1]; 5 uM CMX001, 72 h p.i.): only few weakly LTag stained cells but no agnoprotein expressing cells were observed
- BKV-infected cells by immunofluorescence staining (BKV(Dunlop) [1]; 10 uM CMX001, 72 h p.i.): no BKV-infected cell was observed
- LTag staining reduced (BKV(Dunlop) [1]; 48 h p.i.): 33%
- decrease of VP1 by western blotting (BKV(Dunlop) [1]; 48 h p.i.): 86%
- LTag staining reduced (BKV(Dunlop) [1]; 72 h p.i.): 30%
- decrease of VP1 by western blotting (BKV(Dunlop) [1]; 72 h p.i.): 63%
- decrease in BKV agnoprotein expressing cells (BKV(Dunlop) [1]; CMX001 0.31 uM, immunofluorescence 72 h p.i.): approximately 60%
- activity compared to the freshly prepared drug (BKV; stock 1 mg/ml stored one week at 4° C.): less than 60%
- activity compared to the freshly prepared drug (BKV; stock 1 mg/ml stored one week at −20° C.): approximately 90%
- IC90 (BKV(Dunlop) [2]; Betapolyomavirus hominis, Epithelial cell, primary human renal proximal tubule epithelial cells (conclusion), read-out: IC90 against BK virus replication): 310 nM
- extracellular BKV load (timecourse) (BKV(Dunlop) [2]; CMX001 0.31 μM, 48 h p.i.): only input virus could be detected; also recorded: only input was detectable
- BKV load in supernatants from treated cells (BKV(Dunlop) [2]; CMX001 0.31 μM, 72 h p.i.): 1.13×10^8 Geq/ml
- BKV load in supernatants lower than in untreated cells (timecourse) (BKV(Dunlop) [2]; CMX001 0.31 μM, 72 h p.i.): 84%
- IC90 (BKV(Dunlop) [2]; RPTEC, RPTECs, added 2 h p.i., harvested 72 h p.i., viral input subtracted, read-out: inhibitory concentration IC90 (extracellular BKV load)): 310 nM
- effect of pre-treatment on BKV load 72 h p.i. (BKV(Dunlop) [2]; RPTECs treated for 4 hours, ending 20 hours before infection): hardly any effect; also recorded: did not inhibit BKV replication
- reduction of viral load by pre-treatment (BKV(Dunlop) [2]; RPTECs treated for 23 hours until one hour before infection, 72 h p.i.): about 50%
